Reference: patent publication US20230149362A1, “NEW CAPSULE COMPOSITION FOR PERORAL ADMINISTRATION” (Vicore Pharma AB, priority 2020, published 2023)
≈ marks a conversion by molar mass, not a printed value. Like-named read-outs stand apart in the source and are kept apart here.

What was measured:
[1] = Solubility of free C21 in aqueous vehicles (saturated solutions, HPLC); assay type: physicochemical; details: for solubility at 48 h: thermodynamic from solid, read-out: Concentration (solubility)
From the text: Vehicles (with sources) were as follows: sodium chloride (Sigma), ethanol (99.5%, Kemetyl), polyethylene glycols (BASF), phosphate buffered saline (PBS) pH 7.4 (Sigma), buffer solution pH 2.00 (citric acid, sodium hydroxide, hydrogen chloride), buffer solution pH 4.00 (citric acid, sodium hydroxide), buffer solution pH 6.00 (citric acid, sodium hydroxide), buffer solution pH 8.00 (boric acid, sodium hydroxide, hydrogen chloride) and buffer solution pH 10.00 (boric acid, sodium hydroxide, hydrogen chloride) (all Merck), and purified water (Elga Option 4 water purifier).
Saturated solutions of free C21 (obtained from Syntagon AB, Södertälje, Sweden) were prepared in duplicates. The samples were kept magnetically stirred for 48 hours prior to analysis. For some samples, the added substance was dissolved and more was thereafter added to obtain saturated solutions.
After 48 hours, pH was measured and thereafter 1 mL of solution was withdrawn. Undissolved substance was removed by centrifugation (1500 rpm, 30 minutes). The supernatant was diluted 10 to 500 times with acetonitrile/H2O, 30:70.
C21 content was measured by HPLC.

[2] = Stability of aqueous solutions of C21 under four storage conditions (sensitivity to light); assay type: physicochemical; details: for Amount of Free C21, % of initial / Solution pH: 1 mg/mL in 0.9% NaCl
Experimental: The stability of free C21 in 0.9% NaCl pH 9.4 was investigated.
Solutions of 1 mg/mL of C21 were studied for four weeks under four different storage conditions. The solution was filtered through a 0.22 sterile syringe filter to minimize bacterial growth during the stability test. The samples were analysed by HPLC for purity.
The results are summarised in Table 3 below, in which the amount of C21 is given as a percentage of the initial amount of drug. Solution pHs were also measured and are shown within parenthesis in Table 3.
The stability of the sodium salt of C21 was also investigated under the same storage conditions.
At the time for analysis of the one week samples, it was noted that the heating cabinet for storage of samples at 40° C. was broken. In view of this, these samples were thereafter kept at room temperature for three days.

CCCCOC(=O)NS(=O)(=O)c1sc(CC(C)C)cc1-c1ccc(Cn2ccnc2)cc1 [free C21, N-butyloxycarbonyl-3-(4-imidazol-1-ylmethylphenyl)-5-iso-butylthiophene-2-sulfonamide]
solubility at 48 h ([1]; 0.9% NaCl, pH 7.3, saline or isotonic, vehicle 0.9% NaCl, pH 7.3): 120 µg/mL (≈ 252 µM) | solubility at 48 h ([1]; 0.9% NaCl, pH 8.3, saline or isotonic, vehicle 0.9% NaCl, pH 8.3 adjusted by NaOH, one sample): 1580 µg/mL (≈ 3320 µM) | solubility at 48 h ([1]; 0.9% NaCl, pH 9.7, saline or isotonic, vehicle 0.9% NaCl, pH 9.7 adjusted by NaOH): 27400 µg/mL (≈ 57600 µM) | solubility at 48 h ([1]; 0.9% NaCl/EtOH 95:5 v/v, pH 7.9, aqueous with cosolvent or surfactant or cyclodextrin, vehicle 0.9% NaCl/EtOH 95:5 v/v, pH 7.9, one sample): 570 µg/mL (≈ 1200 µM) | solubility at 48 h ([1]; PBS pH 7.4, pH 7.7, aqueous buffer, vehicle Buffer/PBS pH 7.4, measured pH 7.7): 240 µg/mL (≈ 505 µM) | solubility at 48 h ([1]; PEG/EtOH/H2O (40:10:50), pH 6.1, aqueous with cosolvent or surfactant or cyclodextrin, vehicle PEG/EtOH/H2O (40:10:50), pH 6.1): 830 µg/mL (≈ 1750 µM) | solubility at 48 h ([1]; PEG/H2O (25:75), pH 5.5, aqueous with cosolvent or surfactant or cyclodextrin, vehicle PEG/H2O (25:75), pH 5.5): 170 µg/mL (≈ 357 µM) | solubility at 48 h ([1]; PEG/H2O (50:50), pH 6.2, aqueous with cosolvent or surfactant or cyclodextrin, vehicle PEG/H2O (50:50), pH 6.2): 610 µg/mL (≈ 1280 µM) | solubility at 48 h ([1]; PG/EtOH/H2O (40:10:50), pH 6.3, aqueous with cosolvent or surfactant or cyclodextrin, vehicle PG/EtOH/H2O (40:10:50), pH 6.3): 790 µg/mL (≈ 1660 µM) | solubility at 48 h ([1]; PG/H2O (10:90), pH 7.5, aqueous with cosolvent or surfactant or cyclodextrin, vehicle PG/H2O (10:90), pH 7.5): 220 µg/mL (≈ 463 µM) | solubility at 48 h ([1]; PG/H2O (25:75), pH 6.9, aqueous with cosolvent or surfactant or cyclodextrin, vehicle PG/H2O (25:75), pH 6.9): 300 µg/mL (≈ 631 µM) | solubility at 48 h ([1]; boric acid buffer pH 8.0, pH 7.9, aqueous buffer, vehicle Buffer/Boric acid pH 8.0, measured pH 7.9): 500 µg/mL (≈ 1050 µM) | solubility at 48 h ([1]; boric acid buffer pH 10.0, pH 8.7, aqueous buffer, vehicle Buffer/Boric acid pH 10.0, measured pH 8.7): 19100 µg/mL (≈ 40200 µM) | solubility at 48 h ([1]; citric acid buffer pH 2.0, pH 2.3, aqueous buffer, vehicle Buffer/Citric acid pH 2.0, measured pH 2.3): 3950 µg/mL (≈ 8300 µM) | solubility at 48 h ([1]; citric acid buffer pH 4.0, pH 4, aqueous buffer, vehicle Buffer/Citric acid pH 4.0, measured pH 4.0): 80 µg/mL (≈ 168 µM) | solubility at 48 h ([1]; citric acid buffer pH 6.0, pH 6, aqueous buffer, vehicle Buffer/Citric acid pH 6.0, measured pH 6.0): 60 µg/mL (≈ 126 µM) | Concentration (solubility) ([1]; vehicle Buffer/Boric acid pH 10.0, measured pH 8.7): 19900 µg/mL | solubility at 48 h ([1]; water, pH 7.3, water, vehicle H2O, pH 7.3, stirred 48 hours): 150 µg/mL (≈ 315 µM) | Amount of Free C21, % of initial ([2]; 5° C., dark, 1 week): 101 % of initial | Solution pH ([2]; 5° C., dark, 1 week): (9.2) | Amount of Free C21, % of initial ([2]; 5° C., dark, 2 weeks): 107 % of initial | Solution pH ([2]; 5° C., dark, 2 weeks): (9.2) | Amount of Free C21, % of initial ([2]; 5° C., dark, 3 weeks): 108 % of initial | Solution pH ([2]; 5° C., dark, 3 weeks): (9.1) | Amount of Free C21, % of initial ([2]; 5° C., dark, 4 weeks): 108 % of initial | Solution pH ([2]; 5° C., dark, 4 weeks): (9.2) | Amount of Free C21, % of initial ([2]; 5° C., dark, Initial): 100 % of initial | Solution pH ([2]; 5° C., dark, Initial): (9.4) | Amount of Free C21, % of initial ([2]; 40° C., dark, 1 week): 101 % of initial | Solution pH ([2]; 40° C., dark, 1 week): (9.0) | Amount of Free C21, % of initial ([2]; 40° C., dark, 2 weeks): 111 % of initial | Solution pH ([2]; 40° C., dark, 2 weeks): (8.6) | Amount of Free C21, % of initial ([2]; 40° C., dark, 3 weeks): 106 % of initial | Solution pH ([2]; 40° C., dark, 3 weeks): (8.7) | Amount of Free C21, % of initial ([2]; 40° C., dark, 4 weeks): 107 % of initial | Solution pH ([2]; 40° C., dark, 4 weeks): (8.7) | Amount of Free C21, % of initial ([2]; 40° C., dark, Initial): 100 % of initial | Solution pH ([2]; 40° C., dark, Initial): (9.4) | Amount of Free C21, % of initial ([2]; RT, dark, 1 week): 97 % of initial | Solution pH ([2]; RT, dark, 1 week): (9.2) | Amount of Free C21, % of initial ([2]; RT, dark, 2 weeks): 109 % of initial | Solution pH ([2]; RT, dark, 2 weeks): (8.9) | Amount of Free C21, % of initial ([2]; RT, dark, 3 weeks): 105 % of initial | Solution pH ([2]; RT, dark, 3 weeks): (9.0) | Amount of Free C21, % of initial ([2]; RT, dark, 4 weeks): 106 % of initial | Solution pH ([2]; RT, dark, 4 weeks): (8.9) | Amount of Free C21, % of initial ([2]; RT, dark, Initial): 100 % of initial | Solution pH ([2]; RT, dark, Initial): (9.4) | Amount of Free C21, % of initial ([2]; RT, light, 1 week): 96 % of initial | Solution pH ([2]; RT, light, 1 week): (9.0) | Solution pH ([2]; RT, light, 2 weeks): (8.0) | Amount of Free C21, % of initial ([2]; RT, light, 2 weeks, precipitation, filtered): 44 % of initial | Amount of Free C21, % of initial ([2]; RT, light, 3 weeks): 96 % of initial | Solution pH ([2]; RT, light, 3 weeks): (8.5) | Solution pH ([2]; RT, light, 4 weeks): (7.7) | Amount of Free C21, % of initial ([2]; RT, light, 4 weeks, precipitation, filtered): 13 % of initial | Amount of Free C21, % of initial ([2]; RT, light, Initial): 100 % of initial | Solution pH ([2]; RT, light, Initial): (9.4) | total impurity peak area ([2]; samples stored at 5° C., RT/dark and 40° C.): around 2.5 area% of C21 peak area | chemical stability in aqueous solution ([2]; stored in dark at 5° C., RT and 40° C., four weeks): chemically stable
